In ChEMBL document CHEMBL5214920, “Emerging impact of triazoles as anti-tubercular agent” (Eur J Med Chem, 2022):
≈ marks a conversion by molar mass, not a printed value.

Test system: Mycobacterium tuberculosis
Assay: Antitubercular activity against Mycobacterium tuberculosis H37Rv assessed as bacterial growth inhibition measured after 7 days by direct susceptibility assay
Assay type: functional
Conditions: 168 h, time 7 day

Row | SMILES | MIC [µg/mL]
1 | O=C(O)c1cn(C2CC2)c2c(NO)c(N3CCN(Cc4cn(CCN5C(=O)/C(=N\O)c6ccccc65)nn4)CC3)c(F)cc2c1=O | 0.39 (≈ 0.617 µM)
2 | COc1c(N2CCN(Cc3cn(CCN4C(=O)/C(=N\NC(N)=O)c5cc(Cl)ccc54)nn3)CC2)c(F)cc2c(=O)c(C(=O)O)cn(C3CC3)c12 | 0.39 (≈ 0.552 µM)
3 | O=C1C(=O)N(Cc2cn(Cc3ccc(Br)cc3)nn2)c2ccccc21 | 8.09 (≈ 20.4 µM)
4 | O=C1C(=O)N(Cc2cn(Cc3ccc([N+](=O)[O-])c([N+](=O)[O-])c3)nn2)c2ccccc21 | 7.56 (≈ 18.5 µM)
5 | COc1c(N2CCNCC2)c(F)cc2c(=O)c(C(=O)O)cn(C3CC3)c12 | 1.56 (≈ 4.32 µM)
6 | CO/N=C1/C(=O)C(CCOCCOCCOCCn2cc(CN3C(=O)/C(=N/OC)c4cc(F)ccc43)nn2)c2ccccc21 (stereo not given) | 128 (≈ 210 µM)
7 | O=C(O)c1cn(C2CC2)c2cc(N3CCN(Cc4cn(CCN5C(=O)Cc6ccccc65)nn4)CC3)c(F)cc2c1=O | 0.2 (≈ 0.35 µM)
8 | O=C(O)c1cn(C2CC2)c2cc(N3CCNCC3)c(F)cc2c1=O [CIPROFLOXACIN] | 3.12 (≈ 9.42 µM)

Test system: Mycobacterium tuberculosis
Assay: Antitubercular activity against Mycobacterium tuberculosis H37Rv ATCC 27294 assessed as bacterial growth inhibition measured after 7 days by MABA method
Assay type: functional
Conditions: H37Rv ATCC 27294, 168 h, time 7 day

Row | SMILES | MIC
9 | COc1ccc(OCc2cn(CC(=O)Nc3ccc(C)cc3)nn2)cc1 | > 25 µg/mL
10 | Cc1ccc(NC(=O)Cn2cc(COc3ccc([N+](=O)[O-])cc3)nn2)cc1 | > 25 µg/mL
11 | COc1ccc(OCc2cn(CC(=O)Nc3ccccc3Cl)nn2)cc1 | > 25 µg/mL
12 | COc1ccc(OCc2cn(CC(=O)Nc3ccccc3)nn2)cc1 | > 25 µg/mL
13 | Cc1cccc(NC(=O)Cn2cc(COc3ccc([N+](=O)[O-])cc3)nn2)c1 | > 25 µg/mL
14 | O=C(Cn1cc(COc2ccc([N+](=O)[O-])cc2)nn1)Nc1ccc(Cl)cc1 | > 25 µg/mL
15 | O=C(Cn1cc(COc2ccc([N+](=O)[O-])cc2)nn1)Nc1cccc(Cl)c1 | > 25 µg/mL
16 | COc1ccc(OCc2cn(CC(=O)Nc3ccc(Cl)cc3)nn2)cc1 | > 25 µg/mL
17 | O=C(c1ccccc1)C1C(c2cc3ccccc3nc2N2NNc3ccccc32)C2CCCN2C12C(=O)Nc1ccccc12 (stereo not given) | 1.13 µM
18 | Cc1cccc(NC(=O)Cn2cc(COc3ccccc3)nn2)c1 | > 25 µg/mL
19 | Cc1ccccc1NC(=O)Cn1cc(COc2ccc([N+](=O)[O-])cc2)nn1 | > 25 µg/mL
20 | O=C(Cn1cc(COc2ccccc2)nn1)Nc1ccccc1Cl | > 25 µg/mL
21 | COc1ccc(OCc2cn(CC(=O)Nc3cccc(Cl)c3)nn2)cc1 | > 25 µg/mL
22 | O=C(Cn1cc(COc2ccc([N+](=O)[O-])cc2)nn1)Nc1ccccc1Cl | > 25 µg/mL
23 | COc1ccc(OCc2cn(CC(=O)Nc3cccc(C)c3)nn2)cc1 | > 25 µg/mL
24 | Cc1ccccc1NC(=O)Cn1cc(COc2ccccc2)nn1 | > 25 µg/mL
25 | COc1ccc(OCc2cn(CC(=O)Nc3ccccc3C)nn2)cc1 | > 25 µg/mL
26 | Cc1ccc(NC(=O)Cn2cc(COc3ccccc3)nn2)cc1 | > 25 µg/mL
27 | O=C(Cn1cc(COc2ccc([N+](=O)[O-])cc2)nn1)Nc1ccccc1 | > 25 µg/mL
28 | O=C(Cn1cc(COc2ccccc2)nn1)Nc1ccc(Cl)cc1 | > 25 µg/mL
29 | O=C(Cn1cc(COc2ccccc2)nn1)Nc1cccc(Cl)c1 | > 25 µg/mL

Test system: Mycobacterium tuberculosis
Assay: Antitubercular activity against Mycobacterium tuberculosis H37Rv ATCC 27294 assessed as bacterial growth inhibition measured after 5 days by MABA method
Assay type: functional
Conditions: H37Rv ATCC 27294, 120 h, time 5 day

Row | SMILES | MIC
30 | Cc1nc2ccccn2c1C(=O)NCc1cn(Cc2ccc(C(F)(F)F)cc2)nn1 | 1.56 µg/mL
31 | O=C(NCc1cn(Cc2ccc([N+](=O)[O-])cc2)nn1)c1cn2ccccc2n1 | 1.56 µg/mL
32 | Cc1nc2ncccn2c1C(=O)NCc1cn(Cc2ccccc2F)nn1 | 1.56 µg/mL
33 | O=C(NCc1cn(Cc2ccccc2F)nn1)c1cn2ccccc2n1 | 1.56 µg/mL
34 | O=C(NCc1cn(Cc2ccccc2F)nn1)c1cn2cccnc2n1 | 1.56 µg/mL
35 | COc1ccc(Cn2cc(COCc3c(-c4ccccc4F)nc4ccccn34)nn2)cc1 | 1.56 µg/mL
36 | COc1ccc(Cn2cc(COCc3c(-c4ccc(OC)cc4)nc4ccccn34)nn2)cc1 | 1.56 µg/mL
37 | COc1ccc2nc(Cl)c(C(=O)NCc3cn(CC(=O)c4ccc(F)cc4)nn3)cc2c1 | 1.6 µg/mL
38 | Cc1nc2ccccn2c1C(=O)NCc1cn(Cc2ccc([N+](=O)[O-])cc2)nn1 | 1.56 µg/mL
39 | COc1ccc(Cn2cc(CNC(=O)c3cn4ccccc4n3)nn2)cc1 | 1.56 µg/mL
40 | COc1ccc(Cn2cc(CNC(=O)c3c(C)nc4ccccn34)nn2)cc1 | 1.56 µg/mL
41 | COc1ccc(-c2nc3ccccn3c2COCc2cn(Cc3ccc(C)cc3)nn2)cc1 | 1.56 µg/mL
42 | C[C@H](CCC(=O)COc1cn(C[C@H]2O[C@@H](n3cnc4c(N)ncnc43)[C@@H]3OC(C)(C)O[C@@H]32)nn1)C12CCCC1C1CCC3C[C@H](O)CC[C@]3(C)C1CC2 (stereo not given in full) | 4.09 µg/mL
43 | NC(=O)c1cnccn1 [PYRAZINAMIDE] | 3.12 µg/mL
44 | Cc1nc2ncccn2c1C(=O)NCc1cn(Cc2ccc(C#N)cc2)nn1 | 1.56 µg/mL
45 | Cc1ccc(Cn2cc(CNC(=O)c3c(C)nc4ncccn34)nn2)cc1 | 1.56 µg/mL
46 | Cc1ccc(Cn2cc(CNC(=O)c3c(C)nc4ccccn34)nn2)cc1 | 1.56 µg/mL

Row | SMILES | MIC
47 | COc1ccc(Cn2cc(CNC(=O)c3cc4cc(OC)ccc4nc3Cl)nn2)cc1 | 1.6 µg/mL
48 | O=C(NCc1cn(Cc2ccc([N+](=O)[O-])cc2)nn1)c1cn2cccnc2n1 | 1.56 µg/mL
49 | O=C(O)c1cn(C2CC2)c2cc(N3CCNCC3)c(F)cc2c1=O [CIPROFLOXACIN] | 3.12 µM
50 | Cc1nc2ncccn2c1C(=O)NCc1cn(Cc2ccc(C(F)(F)F)cc2)nn1 | 1.56 µg/mL
51 | COc1ccc(Cn2cc(CNC(=O)c3c(C)nc4ncccn34)nn2)cc1 | 1.56 µg/mL
52 | Cc1nc2ccccn2c1C(=O)NCc1cn(Cc2ccccc2F)nn1 | 1.56 µg/mL
53 | COc1ccc2nc(Cl)c(C(=O)NCc3cn(Cc4ccc(C#N)cc4)nn3)cc2c1 | 1.6 µg/mL
54 | N#Cc1ccc(Cn2cc(CNC(=O)c3cn4cccnc4n3)nn2)cc1 | 1.56 µg/mL
55 | Cc1nc2ncccn2c1C(=O)NCc1cn(Cc2ccc([N+](=O)[O-])cc2)nn1 | 1.56 µg/mL
56 | COc1ccc(Cn2cc(CNC(=O)c3cn4cccnc4n3)nn2)cc1 | 1.56 µg/mL
57 | COc1ccc(C(=O)Cn2cc(CNC(=O)c3cc4cc(OC)ccc4nc3Cl)nn2)cc1 | 1.6 µg/mL
58 | COc1ccc2nc(Cl)c(C(=O)NCc3cn(Cc4ccccc4)nn3)cc2c1 | 1.6 µg/mL
59 | O=C(NCc1cn(Cc2ccc(C(F)(F)F)cc2)nn1)c1cn2cccnc2n1 | 1.56 µg/mL
60 | O=C(NCc1cn(Cc2ccc(C(F)(F)F)cc2)nn1)c1cn2ccccc2n1 | 1.56 µg/mL
61 | Cc1ccc(Cn2cc(CNC(=O)c3cn4ccccc4n3)nn2)cc1 | 1.56 µg/mL
62 | Cc1ccc(Cn2cc(CNC(=O)c3cn4cccnc4n3)nn2)cc1 | 1.56 µg/mL

Test system: Mycobacterium tuberculosis
Assay: Antitubercular activity against Mycobacterium tuberculosis H37Rv assessed as bacterial growth inhibition measured after 7 days by MABA method
Assay type: functional
Conditions: 168 h, time 7 day

Row | SMILES | MIC [µg/mL]
63 | COc1ccc(-n2nnc3c2CCC2(C=Cc4cc(Cl)ccc4O2)C3)cc1 (stereo not given) | 1.56 (≈ 4.11 µM)

Test system: Mycobacterium tuberculosis
Assay: Antitubercular activity against Mycobacterium tuberculosis H37Rv assessed as bacterial growth inhibition measured after 5 days by MABA method
Assay type: functional
Conditions: 120 h, time 5 day

Row | SMILES | MIC | MIC90 [µM]
64 | CCc1nn(-c2ccccc2)c(=O)n1N(Cc1ccccc1)Cn1nnc2ccccc21 | 3.12 µg/mL | 
65 | CC1=CC(C)Oc2cc(OCc3cn(Cc4cc(=O)oc5ccc6ccccc6c45)nn3)ccc21 (stereo not given) | 6.25 µg/mL | 
66 | CCc1nn(-c2ccccc2)c(=O)n1N(Cc1ccc(O)cc1)CN(CC)CC | 6.25 µg/mL | 
67 | COc1ccc(-n2ncn(Cc3cc4cc(OC)ccc4nc3Cl)c2=O)cc1 | 0.075 µM | 
68 | COc1ccc(-n2ncn(Cc3cc4ccccc4nc3Cl)c2=O)cc1 | 0.078 µM | 
69 | NC(=O)c1cnccn1 [PYRAZINAMIDE] | 3.12 µg/mL | 
70 | COc1ccc(-n2ncn(Cc3cc4cc(C)ccc4nc3Cl)c2=O)cc1 | 0.077 µM | 
71 | Cc1ccc2nc(O)c(Cn3cnn(-c4ccccc4)c3=O)cc2c1 |  | 0.073 (≈ 0.0243 µg/mL)
72 | O=C(O)c1cn(C2CC2)c2cc(N3CCNCC3)c(F)cc2c1=O [CIPROFLOXACIN] | 3.12 µg/mL | 
73 | CC1=CC(C)Oc2cc(OCc3cn(Cc4cc(=O)oc5ccc(Cl)cc45)nn3)ccc21 (stereo not given) | 6.25 µg/mL | 
74 | COc1ccc2nc(O)c(Cn3cnn(-c4ccccc4)c3=O)cc2c1 | 0.074 µM | 
75 | N/N=c1\ccc2ccccc2o1 | 50 µg/mL | 

Test system: Mycobacterium tuberculosis
Assay: Antitubercular activity against Mycobacterium tuberculosis H37Rv assessed as bacterial growth inhibition measured after 24 hrs by agar micro dilution method
Assay type: functional
Conditions: not given

Row | SMILES | MIC [µg/mL]
76 | Cc1ccc(-c2nc3n(n2)C2=NNC(c4ccc(Br)cc4)C2S3)cc1 (stereo not given) | 3.12 (≈ 7.58 µM)
77 | Cc1ccc(-c2nc3n(n2)C2=NOC(c4ccc([N+](=O)[O-])cc4)C2S3)cc1 (stereo not given) | 3.12 (≈ 8.24 µM)
78 | Cc1ccc(-c2nc3n(n2)C2=NOC(c4ccc(N(C)C)cc4)C2S3)cc1 (stereo not given) | 3.12 (≈ 8.28 µM)
79 | Cc1ccc(-c2nc3n(n2)C2=NOC(c4ccc(Br)cc4)C2S3)cc1 (stereo not given) | 3.12 (≈ 7.56 µM)
80 | Cc1ccc(-c2nc3n(n2)C2=NOC(c4ccccc4)C2S3)cc1 (stereo not given) | 3.12 (≈ 9.34 µM)
81 | COc1ccccc1C1ON=C2C1Sc1nc(-c3ccc(C)cc3)nn12 (stereo not given) | 3.12 (≈ 8.58 µM)
82 | Cc1ccc(-c2nc3n(n2)C2=NOC(c4ccc(Cl)cc4)C2S3)cc1 (stereo not given) | 3.12 (≈ 8.47 µM)
83 | Cc1ccc(-c2nc3n(n2)C2=NNC(c4cccc([N+](=O)[O-])c4)C2S3)cc1 (stereo not given) | 3.12 (≈ 8.26 µM)
84 | Cc1ccc(-c2nc3n(n2)C2=NNC(c4ccc(N(C)C)cc4)C2S3)cc1 (stereo not given) | 3.12 (≈ 8.3 µM)
85 | Cc1ccc(-c2nc3n(n2)C2=NNC(c4ccc([N+](=O)[O-])cc4)C2S3)cc1 (stereo not given) | 3.12 (≈ 8.26 µM)
86 | Cc1ccc(-c2nc3n(n2)C2=NOC(c4cccc([N+](=O)[O-])c4)C2S3)cc1 (stereo not given) | 3.12 (≈ 8.24 µM)
87 | COc1ccc(C2ON=C3C2Sc2nc(-c4ccc(C)cc4)nn23)cc1 (stereo not given) | 3.12 (≈ 8.58 µM)
88 | COc1ccc(C2NN=C3C2Sc2nc(-c4ccc(C)cc4)nn23)cc1 (stereo not given) | 3.12 (≈ 8.6 µM)
89 | Cc1ccc(-c2nc3n(n2)C2=NNC(c4ccc(Cl)cc4)C2S3)cc1 (stereo not given) | 3.12 (≈ 8.49 µM)
90 | COc1ccccc1C1NN=C2C1Sc1nc(-c3ccc(C)cc3)nn12 (stereo not given) | 3.12 (≈ 8.6 µM)
